Tested on: LNCaP cell lines
Assay: WST-1 Cell Proliferation and Viability Assay
Format: cell-based
Settings: Homo sapiens, LNCaP cells
Method: WST-1 Cell Proliferation and Viability Assay
Cell proliferation and cell viability was assessed using the tetrazolium salt WST-1 (Roche Applied Science, Indianapolis Ind.). The assay is based on the cleavage of WST-1 (light red) by mitochondrial dehydrogenase causing the formation of formazan (dark red), which can be measured on an optical density (O.D.) reader. LNCaP cell lines were plated in 96 well tissue culture plates (Corning Costar, N.Y.) at a density of 5000 cells/well in 150 μl complete media phenol-red free (RPMI-1640 [Invitrogen, Carlsbad Calif.] and 10% fetal calf serum). This plate is termed the assay plate. After the cells are plated, they are then incubated overnight at 37 degrees Celsius in a humidified chamber containing 5% CO2 (incubator).
Compounds are added to the assay plate in 50 μl of complete media and 0.4% DMSO (v:v) making the final DMSO concentration 0.1%. The assay plate is then returned to the incubator for 18-72 hours. WST-1 reagent is then added (20 μl/well) and the plate is placed on an ELISA plate shaker for 30 minutes at room temperature. Plates are then transferred back to the incubator for an additional 3 hours. Plates are then read on a 96 well plate O.D. reader at A490-A650.

[1] = compound incubation 18-72 hours
[2] = flagged "Estimated": based on actual data at different concentrations

Row | Structure (SMILES) | EC50 [1] [µM] | EC50 [2] [µM]
1 | CC(C)Cc1ccc(CNc2cccc(NC(=O)c3cc(Cl)ccc3O)c2)cc1 [Compound 13] | 18 | –
2 | COc1ccccc1CCNc1ccc(C(F)(F)F)cc1NC(=O)c1cc(Cl)ccc1O [Compound 274] | 4 | –
3 | Cc1cc(C)c(OCCc2ccccc2)c(NC(=O)c2cc(Cl)ccc2O)c1 [Compound 101] | 4 | –
4 | O=C(Nc1cccc(OCCc2cccc(C(F)(F)F)c2)c1)c1cc(Cl)ccc1O [Compound 125] | 6 | –
5 | O=C(Nc1cc(Cl)ccc1OCCc1ccc(C(F)(F)F)cc1)c1cc(Cl)ccc1O [Compound 99] | 1 | –
6 | O=C(Nc1cc(Cl)ccc1OCCc1ccc(Cl)cc1)c1cc(Cl)ccc1O [Compound 87] | 0.9 | –
7 | COc1ccc(NC(=O)c2cc(Cl)ccc2O)cc1OCCc1ccccc1 [Compound 12] | 13 | –
8 | O=C(Nc1cc(C(F)(F)F)ccc1OC1CCCCC1c1ccccc1)c1cc(Cl)ccc1O (stereo not drawn) [Compound 280] | 1 | –
9 | O=C(Nc1cccc(OCc2ccc(Cl)cc2)c1)c1cc(Cl)ccc1O [Compound 65] | 17 | –
10 | COc1ccccc1CCOc1cccc(NC(=O)c2cc(C)ccc2O)c1 [Compound 209] | 17 | –
11 | O=C(Nc1ccccc1OCCc1ccccc1)c1cc(Cl)ccc1O [Compound 80] | 4 | –
12 | COc1ccc(-c2ccc(O)c(C(=O)Nc3cccc(OCCc4ccccc4OC)c3)c2)cc1 [Compound 342] | 10 | –
13 | O=C(Nc1cccc(OCc2ccc3c(c2)OCO3)c1)c1cc(Cl)ccc1O [Compound 86] | – | 30
14 | COc1ccc(CCOc2ccc(Cl)cc2NC(=O)c2cc(Cl)ccc2O)cc1 [Compound 79] | 2 | –
15 | O=C(Nc1cc(C(F)(F)F)ccc1OCc1cccc(C(F)(F)F)c1)c1cc(Cl)ccc1O [Compound 327] | 2.1 | –
16 | O=CNc1cccc(C(=O)Nc2cc(C(F)(F)F)ccc2OCCc2cccc(C(F)(F)F)c2)c1O [Compound 261] | 6 | –
17 | COc1cccc(-c2cccc(CNC(=O)c3cc(Cl)ccc3O)c2)c1 [Compound 317] | – | 30
18 | COC(=O)c1ccc(COc2ccc(C(F)(F)F)cc2NC(=O)c2cc(Cl)ccc2O)cc1 [Compound 308] | 0.83 | –
19 | O=C(Nc1cccc(OCCC2CCCCC2)c1)c1cc(Cl)ccc1O [Compound 46] | 5 | –
20 | O=CNc1cccc(C(=O)Nc2cc(C(F)(F)F)ccc2Oc2ccc(Cl)c3ccccc23)c1O [Compound 269] | 8 | –
21 | O=C(NCc1cccc(Oc2ccccc2)c1)c1cc(Cl)ccc1O [Compound 67] | 50 | –

Row | Structure (SMILES) | EC50 [1] [µM] | EC50 [2] [µM]
22 | O=C(Nc1cc(Cl)ccc1OCc1ccc(C(F)(F)F)cc1)c1cc(Cl)ccc1O [Compound 328] | 1.6 | –
23 | O=C(Nc1cc(C(F)(F)F)ccc1SCCc1ccccc1)c1cc(Cl)ccc1O [Compound 259] | 1 | –
24 | COc1ccccc1CCCOc1cccc(NC(=O)c2cc(Cl)ccc2O)c1 [Compound 16] | 8 | –
25 | O=C(Nc1cccc(CNc2ccccc2)c1)c1cc(Cl)ccc1O [Compound 36] | 21 | –
26 | O=C(Nc1cc(Cl)ccc1OCCc1ccccc1F)c1cc(Cl)ccc1O [Compound 107] | 2 | –
27 | O=C(NCc1ccc(Cl)c(-c2ccccc2)c1)c1cc(Cl)ccc1O [Compound 292] | – | 30
28 | CS(=O)(=O)c1ccc(CCOc2ccc(Cl)cc2NC(=O)c2cc(Cl)ccc2O)cc1 [Compound 286] | 10 | –
29 | O=C(NCc1cc(-c2ccccc2)ccc1Cl)c1cc(Cl)ccc1O [Compound 293] | – | 30
30 | COc1ccccc1CCOc1cccc(NC(=O)c2cc(-c3ccc(C)cc3)ccc2O)c1 [Compound 340] | 16 | –
31 | O=C(Nc1cc(C(F)(F)F)ccc1OCC(F)(F)F)c1cc(Cl)ccc1O [Compound 278] | – | 2
32 | CC(C)COc1ccc(Cl)cc1NC(=O)c1cc(Cl)ccc1O [Compound 246] | 2 | –
33 | N#Cc1ccc(OCCc2ccccc2)c(NC(=O)c2cc(Cl)ccc2O)c1 [Compound 152] | 7 | –
34 | COc1ccccc1CCOc1cccc(NC(=O)c2cccc(-c3ccccc3)c2O)c1 [Compound 221] | 17 | –
35 | O=C(Nc1cc(C(F)(F)F)ccc1OCc1ccccc1)c1cc(Cl)ccc1O [Compound 266] | 0.9 | –
36 | O=C(Nc1cc(Cl)cc(Cl)c1OCCc1cccc(C(F)(F)F)c1)c1cc(Cl)ccc1O [Compound 242] | 2 | –
37 | CC(C)C(COc1ccc(C(F)(F)F)cc1NC(=O)c1cc(Cl)ccc1O)c1ccc(Cl)cc1 (stereo not drawn) [Compound 283] | 0.9 | –
38 | COc1ccccc1CCOc1cccc(NC(=O)c2ccc(C)cc2O)c1 [Compound 208] | 21 | –
39 | O=C(Nc1ccc(Cl)cc1)c1cc(Cl)ccc1O [Compound 93] | 4 | –
40 | O=C(NCc1cc(C(F)(F)F)ccc1Cl)c1cc(Cl)ccc1O [Compound 318] | – | 40
41 | O=C(Nc1cccc(OCCc2ccccc2)c1)c1cc(Cl)ccc1O [Compound 29] | – | 30
42 | O=C(NCc1cccc(-c2ccccc2)c1)c1cc(-c2ccc(F)cc2F)ccc1O [Compound 220] | – | 20

Row | Structure (SMILES) | EC50 [1] [µM] | EC50 [2] [µM]
43 | O=C(Nc1cc(Cl)ccc1OCc1cccc(C(F)(F)F)c1)c1cc(Cl)ccc1O [Compound 329] | 2.2 | –
44 | O=C(c1ccccc1)c1ccc(NC(=O)c2cc(Cl)ccc2O)cc1 [Compound 25] | – | 20
45 | O=C(Nc1cc(C(F)(F)F)ccc1OCCOc1ccccc1)c1cc(Cl)ccc1O [Compound 297] | 0.9 | –
46 | O=C(Nc1cc(Cl)ccc1OCCc1ccc(F)cc1)c1cc(Cl)ccc1O [Compound 106] | 1 | –
47 | CCC(COc1ccc(C)c(NC(=O)c2cc(Cl)ccc2O)c1)c1ccccc1 (stereo not drawn) [Compound 128] | 2 | –
48 | O=C(Nc1cc(C(F)(F)F)ccc1OCCCc1ccccc1)c1cc(Cl)ccc1O [Compound 141] | 1 | –
49 | O=C(Nc1cccc(OCCc2ccccc2)c1)c1cccc(-c2ccccc2)c1O [Compound 224] | 22 | –
50 | COc1ccccc1CCOc1cccc(NC(=O)c2cc(-c3cccc(Cl)c3)ccc2O)c1 [Compound 349] | 10 | –
51 | O=C(Nc1cc(C(F)(F)F)ccc1OCCOCCCl)c1cc(Cl)ccc1O [Compound 299] | 1 | –
52 | O=C(Nc1cccc(NCc2ccc3c(c2)OCO3)c1)c1cc(Cl)ccc1O [Compound 11] | 40 | –
53 | CN1CCN(c2ccc(NC(=O)c3cc(Cl)ccc3O)c(OCCc3cccc(C(F)(F)F)c3)c2)CC1 [Compound 358] | 16.3 | –
54 | CCc1ccccc1-c1cccc(CNC(=O)c2cc(Cl)ccc2O)c1 [Compound 146] | – | 30
55 | O=C(NCc1cccc(-c2ccccc2)c1)c1cc(Br)ccc1O [Compound 192] | 30 | –
56 | O=C(Nc1cc(Cl)ccc1OCCc1ccccc1)c1cc(Cl)ccc1O [Compound 22] | 2 | –
57 | O=C(Nc1cc(C(F)(F)F)ccc1Oc1ccc(Cl)c2ccccc12)c1cc(Cl)ccc1O [Compound 264] | 1 | –
58 | COc1ccc(CCOc2cccc(NC(=O)c3cc(Cl)ccc3O)c2)cc1OC [Compound 34] | 10 | –
59 | CCC(C)c1cccc(-c2cccc(CNC(=O)c3cc(Cl)ccc3O)c2)c1 (stereo not drawn) [Compound 236] | 11 | –
60 | COc1ccccc1CCOc1cccc(NC(=O)c2cc(-c3cc4ccccc4o3)ccc2O)c1 [Compound 339] | 8 | –
61 | COC(=O)CCc1ccc(OCCc2ccccc2)c(NC(=O)c2cc(Cl)ccc2O)c1 [Compound 326] | 6.2 | –
62 | COc1ccccc1CCOc1cccc(NC(=O)c2ccccc2O)c1 [Compound 198] | 21 | –
63 | CC(C)(C)c1ccc(OCCc2ccccc2)c(NC(=O)c2cc(Cl)ccc2O)c1 [Compound 102] | 2 | –

From patent US7547804B2, “Compounds, compositions, and methods employing same” (Myriad Genetics, Inc., priority 2002, dated 2009)
